# Earlier results in patent US6596714B1, “Parasiticidal formulation for animals and a method of making this formulation” (Phoenix Scientific, Inc., priority 2000, dated 2003).
# Test system: cestode infestations
compound,measurement,setting,value
CN1CCCN=C1/C=C/c1cccs1 [pyrantel pamoate],Effectiveness in treating cestode infestations,"about three times the label recommended dosage, about 19.8 milligrams per kilogram of animal",about 100%
same,Average efficacy against cestode infestations,"label dosage of about 6.6 milligrams per kilogram of animal, paste formulations, average",about 85%
